# Measurements reported in publication PMC11656837, “pH-Responsive Peptide Nanoparticles Deliver Macromolecules to Cells via Endosomal Membrane Nanoporation” (ACS Nano, 2024).
# What was measured:
# [1] = system: Chinese Hamster Ovary (CHO) cells; assay: Cytosolic delivery of yellow fluorescent protein (confocal microscopy); format: cell-based; conditions: 25 μM peptide, 3.5 μM external YFP, 37 °C
# Method: To validate the dextran delivery experiments, we also delivered two separate fluorescent proteins of ∼27 kDa molecular weight to the cytosol of two different cell lines using C16-D-pHD108 (see Figure 7). HeLa cells were incubated overnight with 10 μM green fluorescent protein (GFP), and Chinese Hamster Ovary (CHO) cells were incubated overnight with 3.5 μM yellow fluorescent protein (YFP), with and without 25 μM C16-D-pHD108. Just before imaging, external GFP and YFP were washed off and replaced with TAMRA-dextran (red) or fluorescent protein mTurquoise (blue), respectively, to mark the cell boundaries and extracellular spaces. […] These cells, especially those incubated with the higher 10 μM concentration of GFP, show endosomes with entrapped FP, just as we observed for dextran delivery. […] The apparent nuclear concentration of GFP in cells incubated with GFP but no peptide is indistinguishable from the background. With an external concentration of 3.5 μM, the YFP concentration delivered to the cell cytosol ranges from 1 to 3 μM, with a median of about 1.2 μM or 35% of the external concentration. The apparent cytosolic concentration of YFP in cells incubated with YFP but no peptide is indistinguishable from the background. We also performed YFP delivery experiments at a 4 h time point, Supplemental Figure S4. […]
# For fluorescent protein or fluorescein-(Fab)2 fragment delivery, HeLa cells were incubated at 37 °C overnight in the presence of GFP with and without C16-D-pHD108 and CHO cells were incubated at 37 °C overnight with YFP in the presence and absence of C16-D-pHD108. […] Quantitation of delivered protein was performed by comparing measured intensities from microscopy images of standard protein solutions of known concentrations. […]
# E. YFP intensities from the nuclei and cytosol of the cells in panels A,B and C,D. The dotted lines are the intensities of standard reference solution of media only and 3.5 µM YFP measured at the same time under identical conditions. […]
# [2] = system: HeLa cells; conditions: 40 nM PE-III
# From the text: For this, we use PE-III, the third domain of the Pseudomonas exotoxin. This 25 kDa enzyme ADP ribosylates ribosomal elongation factor 2, thereby blocking protein synthesis and triggering apoptosis. […] Thus, apoptosis will occur only if an exogenous agent, such as a peptide, enables cytosolic delivery of the 4 × 3 nm PE-III protein, Figure 2A.
# Comparison of peptide concentration midpoints requires a constant concentration of PE-III in each experiment. […] The major disadvantage of the PE-III assay to detect delivery is that only a few molecules of active PE-III delivered to the cytosol[36] will produce a positive result. To partly mitigate this effect in the assays described below, we use a constant 40 nM PE-III. At such a low concentration, each endosome will contain an average of fewer than one PE-III molecule if we assume passive entrapment of the cargo (see the Supporting Information).
# The no treatment (no tx) control group contained cells but no peptide or PE-III enzyme. The Alamar Blue intensity of this group was defined as 100% viability. Media alone without cells was defined as 0% viability.
# The concentration range used for each peptide was adjusted according to preliminary measurements of activity in this assay. We assessed PE-III delivery by measuring cell viability using Alamar Blue.
# Fifteen thousand HeLa cells were seeded in a clear bottom, black-walled 96-well plate overnight at 37 °C with 5% CO2 in complete media (DMEM + phenol red +10% FBS + antimycotic/antibiotic + nonessential amino acids). Cells were then washed once in PBS and treated with PE-III and peptide in serum-free media without phenol red, with a 50 μL total volume. After a 2-day incubation with treatment, 50 μL of 10% Alamar blue reagent diluted in serum-free media was added directly to each well (5% Alamar blue final) and incubated for 1.5 h at 37 °C. The plate was then read at 550 equiv/590 em on a Biotek plate reader. Untreated cells were used as a negative control, and MelP5-treated cells served as a positive control.
smiles,measurement,setting,value
CCCCCCCCCCCCCCCC(=O)NCC(=O)N[C@@H](C(=O)NCC(=O)N[C@H](CCC(=O)O)C(=O)N[C@@H](C(=O)N[C@H](CC(C)C)C(=O)N[C@H](Cc1c[nH]cn1)C(=O)N[C@H](CCC(=O)O)C(=O)N[C@H](CC(C)C)C(=O)N[C@H](C)C(=O)N[C@H](CCC(=O)O)C(=O)NCC(=O)N[C@H](CC(C)C)C(=O)N1CCC[C@@H]1C(=O)N[C@H](CCC(=O)O)C(=O)N[C@H](CC(C)C)C(=O)N[C@H](CCC(N)=O)C(=O)N[C@H](CCC(=O)O)C(=O)N[C@H](Cc1c[nH]c2ccccc12)C(=O)N[C@@H](C(=O)N[C@H](Cc1c[nH]cn1)C(=O)N[C@H](C)C(=O)N[C@H](C)C(=O)N[C@H](CCC(N)=O)C(=O)N[C@H](CCC(N)=O)C(=O)N[C@H](CC(C)C)C(N)=O)[C@H](C)CC)C(C)C)[C@H](C)CC [C16-D-pHD108],"YFP delivered to cytosol, median as percent of the external solution",[1]; 4 h,about 13%
same,"YFP concentration delivered to cell cytosol, median",[1]; overnight,about 1.2 μM
same,"YFP delivered to cytosol, median as percent of the external concentration",[1]; overnight,~35%
same,cells that undergo apoptosis,[2]; 10 μM peptide,> 98%
same,fold increase in activity over unmodified pHD108,[2]; from EC50 in HeLa,74 fold
same,EC50,"[2]; read-out: EC50 (peptide concentration midpoint for PE-III-dependent apoptosis), HeLa, serum-free media, 48 h, 37 °C, Alamar Blue",1.9 µM
